Experimental data taken from patent publication US20200181104A1, “SSAO INHIBITORS AND USES THEREOF” (METACRINE, INC., priority 2018, published 2020).

Molecular target: T1, Recombinant Human SSAO/VAP-1/AOC3 (Homo sapiens, UniProt Q16853)
T1 construct: purchased R&D systems 3957-AO
T1 sequence (Q16853 1-763): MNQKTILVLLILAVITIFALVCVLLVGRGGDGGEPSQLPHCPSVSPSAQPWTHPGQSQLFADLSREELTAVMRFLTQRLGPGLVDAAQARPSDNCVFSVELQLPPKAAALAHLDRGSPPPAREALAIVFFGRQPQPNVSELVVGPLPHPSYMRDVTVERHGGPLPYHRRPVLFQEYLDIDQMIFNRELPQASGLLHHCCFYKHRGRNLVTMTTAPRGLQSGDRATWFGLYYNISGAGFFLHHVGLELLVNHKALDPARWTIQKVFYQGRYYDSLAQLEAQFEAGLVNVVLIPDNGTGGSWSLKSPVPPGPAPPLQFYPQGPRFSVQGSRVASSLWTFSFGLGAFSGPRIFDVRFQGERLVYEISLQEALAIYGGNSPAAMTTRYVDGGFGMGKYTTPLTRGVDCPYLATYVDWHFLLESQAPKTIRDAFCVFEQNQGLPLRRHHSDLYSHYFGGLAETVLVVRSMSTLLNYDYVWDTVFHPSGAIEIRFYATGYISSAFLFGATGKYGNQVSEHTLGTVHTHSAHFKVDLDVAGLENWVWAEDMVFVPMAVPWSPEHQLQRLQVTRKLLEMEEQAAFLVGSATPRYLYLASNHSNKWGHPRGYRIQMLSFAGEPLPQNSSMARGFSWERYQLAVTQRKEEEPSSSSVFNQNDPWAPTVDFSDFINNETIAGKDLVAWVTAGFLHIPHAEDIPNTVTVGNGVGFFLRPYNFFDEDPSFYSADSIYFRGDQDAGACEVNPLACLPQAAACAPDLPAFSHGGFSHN
Experiment: Human Semicarbazide-Sensitive Amine Oxidase (SSAO) Assay
Type: biochemical
Conditions: recombinant enzyme, 30 minutes preincubation at 37° C., benzylamine substrate, Amplex Ultra Red/HRP fluorescence
How it was run: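 IC50 from kinetic Amplex Ultra Red/HRP fluorescence (ex 544, em 590 nm, 30-120 min) after benzylamine addition. Beforehand, 6-10 compound dilutions were preincubated 30 min at 37 °C with recombinant human SSAO in 50 mM HEPES (enzyme working concentration 2.5 μg/ml).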

IC50, ≤ 0.01 µM:
COc1ccc(CNC(=O)C23CCC(c4ccc(OC/C(=C/F)CN)cc4)(CC2)CC3)cn1 [Compound 2.141, (E)-4-(4-((2-(aminomethyl)-3-fluoroallyl)oxy)phenyl)-N-((6-methoxpyridin-3-yl)methyl)bicyclo[2.2.2]octane-1-carboxamide]
NC/C(=C\F)COc1ccc(C23CCC(C(=O)N4CC5(CCCCO5)C4)(CC2)CC3)cc1 [Compound 2.143, (E)-(4-(4-((2-(aminomethyl)-3-fluoroallyl)oxy)phenyl)bicyclo [2.2.2]octan-1-yl)(5-oxa-2-azaspiro[3.5]nonan-2-yl)methanone]
C[C@@H](NC(=O)C12CCC(c3ccc(OC/C(=C/F)CN)cc3)(CC1)CC2)C1CCOCC1 [Compound 2.28, (R,E)-4-(4-((2-(aminomethyl)-3-fluoroallyl)oxy)phenyl)-N-(1-(tetrahydro-2H-pyran-4-yl)ethyl)bicyclo[2.2.2]octane-1-carboxamide]
N#CC1CN(C(=O)C23CCC(c4ccc(OC/C(=C/F)CN)cc4)(CC2)CC3)C1 [Compound 2.57, (E)-1-(4-(4-((2-(aminomethyl)-3-fluoroallyl)oxy)phenyl)bicyclo[2.2.2]octane-1-carbonyl)azetidine-3-carbonitrile]
CC1(C)CN(C(=O)C23CCC(c4ccc(OC/C(=C/F)CN)cc4)(CC2)CC3)C1 [Compound 2.52, (E)-(4-(4-((2-(aminomethyl)-3-fluoroallyl)oxy)phenyl)bicyclo [2.2.2]octan-1-yl)(3,3-dimethylazetidin-1-yl)methanone]
NC/C(=C\F)COc1ccc(C23CCC(C(=O)NC4[C@H]5COC[C@H]45)(CC2)CC3)cc1 (stereo in doubt) [Compound 2.70, 4-(4-(((E)-2-(aminomethyl)-3-fluoroallyl)oxy)phenyl)-N-((1R,5S,6r)-3-oxabicyclo[3.1.0]hexan-6-yl)bicyclo[2.2.2]octane-1-carboxamide]
NC/C(=C\F)COc1ccc(C23CCC(C(=O)NC4CCC5(CCOCC5)CC4)(CC2)CC3)cc1 [Compound 2.131, (E)-4-(4-((2-(aminomethyl)-3-fluoroallyl)oxy)phenyl)-N-(3-oxaspiro[5.5]undecan-9-yl)bicyclo[2.2.2]octane-1-carboxamide]
COc1ccccc1CNC(=O)C12CCC(c3ccc(OC/C(=C/F)CN)cc3)(CC1)CC2 [Compound 2.128, (E)-4-(4-((2-(aminomethyl)-3-fluoroallyl)oxy)phenyl)-N-(2-methoxybenzyl)bicyclo[2.2.2] octane-1-carboxamide]
NC/C(=C\F)COc1ccc(C23CCC(C(=O)NC4CCCOC4)(CC2)CC3)cc1 (stereo not shown) [Compound 2.64, (E)-4-(4-((2-(aminomethyl)-3-fluoroallyl)oxy)phenyl)-N-(tetrahydro-2H-pyran-3-yl)bicyclo[2.2.2]octane-1-carboxamide]
CC(C)N(CCO)C(=O)C12CCC(c3ccc(OC/C(=C/F)CN)cc3)(CC1)CC2 [Compound 2.38, (E)-4-(4-((2-(aminomethyl)-3-fluoroallyl)oxy)phenyl)-N-(2-hydroxyethyl)-N-isopropylbicyclo[2.2.2]octane-1-carboxamide]
CC(C)(C#N)CNC(=O)C12CCC(c3ccc(OC/C(=C/F)CN)cc3)(CC1)CC2 [Compound 2.103, (E)-4-(4-((2-(aminomethyl)-3-fluoroallyl)oxy)phenyl)-N-(2-cyano-2-methylpropyl)bicyclo[2.2.2] octane-1-carboxamide]
COc1cccc(CNC(=O)C23CCC(c4ccc(OC/C(=C/F)CN)cc4)(CC2)CC3)c1 [Compound 2.127, (E)-4-(4-((2-(aminomethyl)-3-fluoroallyl)oxy)phenyl)-N-(3-methoxybenzyl)bicyclo[2.2.2] octane-1-carboxamide]
NC/C(=C\F)COc1ccc(C23CCC(C(=O)NCC(F)(F)CO)(CC2)CC3)cc1 [Compound 2.74, (E)-4-(4-((2-(aminomethyl)-3-fluoroallyl)oxy)phenyl)-N-(2,2-difluoro-3-hydroxypropyl)bicyclo[2.2.2] octane-1-carboxamide]
NC/C(=C\F)COc1ccc(C23CCC(C(=O)Nc4ncco4)(CC2)CC3)cc1 [Compound 2.76, (E)-4-(4-((2-(aminomethyl)-3-fluoroallyl)oxy)phenyl)-N-(oxazol-2-yl)bicyclo[2.2.2]octane-1-carboxamide]
CCOC1CC(NC(=O)C23CCC(c4ccc(OC/C(=C/F)CN)cc4)(CC2)CC3)C1 (stereo not shown) [Compound 2.146, 4-(4-(((E)-2-(aminomethyl)-3-fluoroallyl)oxy)phenyl)-N-((1r,3r)-3-ethoxycyclobutyl)bicyclo[2.2.2] octane-1-carboxamide]
CN(C)C(=O)CCNC(=O)C12CCC(c3ccc(OC/C(=C/F)CN)cc3)(CC1)CC2 [Compound 2.37, (E)-4-(4-((2-(aminomethyl)-3-fluoroallyl)oxy)phenyl)-N-(3-(dimethylamino)-3-oxopropyl)bicyclo[2.2.2]octane-1-carboxamide]
COc1ncccc1CNC(=O)C12CCC(c3ccc(OC/C(=C/F)CN)cc3)(CC1)CC2 [Compound 2.137, (E)-4-(4-((2-(aminomethyl)-3-fluoroallyl)oxy)phenyl)-N-((2-methoxypyridin-3-yl)methyl)bicyclo[2.2.2]octane-1-carboxamide]
NC/C(=C\F)COc1ccc(C23CCC(C(=O)N(CCO)C4CC4)(CC2)CC3)cc1 [Compound 2.59, (E)-4-(4-((2-(aminomethyl)-3-fluoroallyl)oxy)phenyl)-N-cyclopropyl-N-(2-hydroxyethyl)bicyclo[2.2.2] octane-1-carboxamide]
COCCOCCNC(=O)C12CCC(c3ccc(OC/C(=C/F)CN)cc3)(CC1)CC2 [Compound 2.32, (E)-4-(4-((2-(aminomethyl)-3-fluoroallyl)oxy)phenyl)-N-(2-(2-methoxyethoxy)ethyl) bicyclo[2.2.2]octane-1-carboxamide]
NC/C(=C\F)COc1ccc(C23CCC(C(=O)N4CC(O)(C5CC5)C4)(CC2)CC3)cc1 [Compound 2.99, (E)-(4-(4-((2-(aminomethyl)-3-fluoroallyl)oxy)phenyl)bicyclo [2.2.2]octan-1-yl)(3-cyclopropyl-3-hydroxyazetidin-1-yl)methanone]
NC/C(=C\F)COc1ccc(C23CCC(C(=O)NCCC(=O)O)(CC2)CC3)cc1 [Compound 2.08, (E)-3-(4-(4-((2-(aminomethyl)-3-fluoroallyl)oxy)phenyl)bicyclo[2.2.2]octane-1-carboxamido)propanoic acid]
COC(C)(C)CCNC(=O)C12CCC(c3ccc(OC/C(=C/F)CN)cc3)(CC1)CC2 [Compound 2.138, (E)-4-(4-((2-(aminomethyl)-3-fluoroallyl)oxy)phenyl)-N-(3-methoxy-3-methylbutyl)bicyclo[2.2.2] octane-1-carboxamide]
